As to `CC(O)(CCCl)c1ccc(-c2ccc(Cl)cc2)cc1` (configuration not stated), the melting point lay within 98 to 100 °C. As for `O=C(N[C@H]1CC[C@H](O)CC1)OCc1ccccc1`, the figure is 148 to 151 °C; as for `CCOC(=O)c1cnn2c1c(NCCCN(C)C)nc1ccccc12`, 72 to 74 °C; as for `O=C1NCCOc2cc([N+](=O)[O-])ccc21`, 208 to 209 °C. As for `C#CCN(C)c1nccc(Oc2ccc(NC(=O)c3cc(F)cc(N4CCCCC4)c3)c3ccccc23)n1`, the figure is 116 to 117 °C; as for `O=C(O)c1cccc(-c2cc(-c3ccc(Cl)cc3)on2)c1`, 293 to 295 °C; as for `CC(C)C(=O)Oc1ccc2c(c1)-c1ncc(C(=O)O)c(=O)n1CC2`, 183 to 185 °C. The figure for `CC(=O)c1ccccc1OCc1cccc(S(N)(=O)=O)c1` is 124 to 125 °C; for `CCn1cc(C(=O)O)c(=O)c2cc(F)c(N3CCN4CCC3CC4)c(F)c21` it is 261 to 263 °C; for `N#CCCNC(=O)c1cccc(-c2ccc3c(c2)N(c2ccc(Cl)cc2Cl)CCO3)c1` it is 147 to 148 °C. With `Cc1oc(-c2ccccc2)nc1CCOc1ccc(C[C@H](NC(=O)C=Cc2cccc(C(F)(F)F)c2)C(=O)O)cc1`, the melting point fell in the range of 214 to 216 °C.

`Nc1ccsc1-c1nc(C2CC2)no1` displayed a melting point of 51 to 54 °C. As for `O=C1Nc2ccccc2Nc2ncccc21`, the figure is 295 to 296 °C; as for `OCc1cnc(Cl)cc1Cl`, 73 to 77 °C; as for `CC(C)OC(=O)COc1ccc(NC(=O)NC(=O)c2ccc(C(N)=S)cc2)cc1`, 224 to 227 °C. The figure for `O=C1C(=CNCCO)Cc2cc(Cl)ccc21` is 164 to 166 °C; for `CC1CCC(=NN(C)c2ccccc2)c2ncc(C(=O)O)c(=O)n21` (configuration not stated) it is 196 to 198 °C; for `Cc1nc(-n2ccc3c(O)cccc3c2=O)sc1C(=O)NCc1ccccc1` it is 218 to 221 °C. `NSc1nc(N)nc2c1ncn2C1OC(CO)C(O)C1O` (configuration not stated) displayed a melting point of 190 to 192 °C. The figure for `CCCCCCCCSCCCN=C=O` is 84 to 85 °C. As for `CCCCCC(=O)OCC(=O)C1CC2c3cccc4[nH]cc(c34)CC2N(C)C1` (configuration not stated), the figure is 135 to 137 °C; as for `Cc1oc(-c2ccccc2)nc1COc1ccc2cc(CCCC3SC(=O)NC3=O)ccc2c1` (configuration not stated), 208 to 209 °C; as for `COc1ccc2c(c1)cc(C1(O)C=CC(=O)C=C1)n2S(=O)(=O)c1ccccc1`, 126 to 128 °C. As for `Cc1c(-c2ccc(O)cc2)sc(C=O)c1-c1ccc(O)c(C=O)c1`, the figure is 228 to 230 °C. Molecule `COc1ccc(S(=O)(=O)Nc2c(C#N)cc(C)cc2C(=O)O)cc1` showed a melting point of 162 °C.

For the molecule `CC(C)(C)NS(=O)(=O)c1cnc(-c2cn(-c3cc(C(F)(F)F)cc(-c4ccc(C(F)(F)F)cc4)n3)cn2)s1`, the melting point is 236 °C. The figure for `O=C1N(Cc2ccc(OC(F)(F)F)cc2)c2ccccc2C12COc1cc3c(cc12)OCO3` (configuration not stated) is 99 to 101 °C; for `COc1cccc(C2(C=O)CCNCC2)c1OC` it is 123 °C; for `CNC(=S)N1CCC(c2nn(-c3ccc(F)cc3)c3ccccc23)CC1` it is 179 to 181 °C. As for `CCN(CC)C(=O)Cc1ccc(O)c(C(C)(C)C)c1`, the figure is 124 to 126 °C; as for `O=C1COCC(=O)NCCOCCOCCN1`, 147 to 148 °C. As for `CCCn1cnc2c1c(=O)n(CCCCC(C)=O)c(=O)n2CC`, the figure is 81 to 82 °C; as for `Cc1[nH]c(=O)[nH]c1C(=O)c1cccs1`, 212 to 215 °C; as for `CC(C)(C)C1=NC=C2C=CC(=O)NC3=C2N1CC3`, 246 to 248 °C. Turning to `O=NN1CCCSc2ccccc21`, the melting point is 85 to 86 °C.

On to `COc1ccc2c(c1)/C(=N\NC(N)=O)C(=O)N2CCN(C(C)C)C(C)C`, for which the melting point was in the range of 157 to 159 °C. The figure for `CC(C)(C)c1cc(CC2SC(=S)NC2=O)cc(C(C)(C)C)c1O` (configuration not stated) is 178 to 179 °C; for `CN1CC(CNC(=O)C(F)(F)F)c2c[nH]c3cccc(c23)C1=O` (configuration not stated) it is 174 to 177 °C; for `COC(=O)C1=C(C)NC(C)=C(C(=O)OCOC(C)=O)C1c1cccc(Cl)c1Cl` (configuration not stated) it is 144 to 148 °C. The figure for `CCCCOCC(CN1C(=O)NC(=O)C(CC)(c2ccccc2)C1=O)OC(N)=O` (configuration not stated) is 104 °C; for `COc1cccc(CNC(=O)c2nc3ccc(F)c(OCCc4ccc(C(=O)O)cc4)c3c(=O)[nH]2)c1` it is 227 to 229 °C; for `CCS(=O)c1ccc(-c2nc(-c3ccc(F)cc3)c(-c3ccncc3)[nH]2)cc1` (configuration not stated) it is 240 °C. As for `CC1N(CCCCS(=O)(=O)O)c2ccc3ccccc3c2C1(C)C` (configuration not stated), the figure is 263 °C; as for `N#Cc1ccc(-c2sc(N3C(=O)c4ccccc4C3=O)c(C(=O)c3ccc(Cl)cc3)c2CBr)cc1`, 211 to 214 °C; as for `O=[N+]([O-])c1ccc2c(c1)C(c1ccccc1F)=[N+]([O-])C(CCl)N2` (configuration not stated), 220 to 224 °C. `COc1cccc(CC(=O)O)c1OCCCc1cn(-c2ncc(C#N)cn2)nc1C(C)C` returned a melting point of 167 to 168 °C.

Turning to `CC(=O)Oc1ccc(Br)cc1Cc1cc(Cl)cc(Cc2cc(Br)ccc2O)c1OC(C)=O`, the melting point fell in the range of 190 to 192 °C. The figure for `CCNC(=O)N(C)c1c(C)cc(C(O)(C(F)(F)F)C(F)(F)F)cc1C` is 178 to 179 °C; for `O=C(Nc1cccc(S(=O)(=O)C(F)(F)F)c1)c1cc2ccccc2cc1O` it is 212 to 213 °C; for `COc1ccccc1CN1CCc2cc(O)ccc2C1` it is 148 to 155 °C. As for `Cc1ccc(CNc2ccc3c(CNC(=O)c4ccc(F)cc4)cccc3n2)o1`, the figure is 173 °C; as for `OCn1c2ccccc2c2ccccc21`, 127 to 129 °C. As for `CC1=CSC(O)C(=O)N1` (configuration not stated), the figure is 166 to 168 °C; as for `CC(C)Cc1cccc(CCCn2c(=O)c3c(N4CCN(C)CC4)cc(Cl)cc3n(Cc3ccccc3)c2=O)c1`, 56 to 62 °C. `CCCOc1ccccc1-c1nc(O)cc(C(N)=O)n1` yielded a melting point of 234 °C. As for `N#Cc1ccc(OCCCCCCl)cc1`, the figure is 47 °C; as for `Fc1cc(Cl)ccc1/C=C/c1nc(COc2ccc(-c3nc(Cn4ccnc4)co3)cc2)co1`, 166 to 167 °C; as for `COC(=O)CN(C(=O)CSc1nc2c(F)c(F)cc(F)c2s1)c1ccccc1`, 145 to 147 °C. As for `NC(Cc1ccccc1)C(=O)NC1CCN(c2nc3c(cc2F)c(=O)c(C(=O)O)cn3C2CC2)C1` (configuration not stated), the figure is 216 to 219 °C. `Cc1cnc(CCCCNc2ncc(Cc3ccc(C)nc3)c(=O)[nH]2)c(Cl)c1` returned a melting point of 140 to 142 °C. As for `Cc1ccc(-c2nc(CI)c(C)o2)cc1`, the figure is 104 to 105 °C; as for `Nc1ncnc2c1c(-c1ccc(Oc3ccccc3)cc1)cn2C1CC2CC(O)CC2C1` (configuration not stated), 193 to 194 °C. The figure for `COC(CN(C)CC1CSC2=C(O1)c1ccccc1C(=O)C2=O)OC` (configuration not stated) is 80 to 82 °C; for `COc1nc2cc([N+](=O)[O-])cc(C=O)c2nc1OC` it is 147 to 149 °C.

Consider `O=c1nc(-c2cccs2)sc2ccccc12`, for which the melting point worked out at 158 °C. The figure for `CCCCCCCCCCCCCCCCCCCc1cc(N)cc(CCCCCCCCCCCCCCCCCCC)c1` is 51 to 53 °C.

Regarding `CC(C)C(=O)c1cc2ccncc2[nH]1`, the melting point lay in the range of 224 to 228 °C. Regarding `N#CC(C#N)=CN(N=C(C#N)C#N)c1ccc(F)cc1`, the melting point was 138 to 139 °C.

In the case of `CCOC(=O)c1c[nH]c2c(OC)csc2c1=O`, the melting point was in the range of 244 to 247 °C. The figure for `CCOc1cc2c(=O)cc(C(=O)O)[nH]c2ccc1=O` is greater than 280 °C.

`COc1ccc(NC(=O)c2ccc(F)c(F)c2)cc1NC(=S)Nc1cccc(C(=O)O)c1` registered a melting point of 218 to 220 °C. The figure for `COc1nc(C)nc(NC(=O)NS(=O)(=O)c2c(C3=NOCCO3)csc2C)n1` is 200 °C; for `O=C1CCCOc2ccc(OCc3ccccc3)cc21` it is 62 to 63 °C; for `CN(C)C1(c2cccc(F)c2)CCC2(CC1)NCCc1c2[nH]c2ccccc12` (configuration not stated) it is 220 to 225 °C. Molecule `COc1cc(C(F)(F)F)nc(S(C)(=O)=O)n1` displayed a melting point of 88 to 90 °C. Molecule `Cc1ccc(S(=O)(=O)OCC2Cc3cccc(-c4ccccc4C(F)(F)F)c3O2)cc1` (configuration not stated) gave a melting point of 116 to 118 °C.

In turn, `CCCNC(=O)NNC=NC(=O)c1nc(Cl)c(N)nc1N` gave a melting point of 220 to 221 °C. As for `CSc1cccc(-c2coc3ccc(-c4nnc(C)o4)cc23)c1`, the figure is 99 to 100 °C. The figure for `COc1ccc(S(=O)(=O)N2c3ccccc3-c3ccc(F)cc3[C@@H]2C)cc1` is 197 to 198 °C; for `CCCCc1ccc(NC(=O)CBr)c([N+](=O)[O-])c1` it is 56 to 57 °C. The figure for `C[C@H]1C(=O)NC(=O)N1CC(=O)Nc1c2c(nc3ccccc13)CCCC2` is 260 to 263 °C; for `O=C(O)C(=O)Nc1nccs1` it is 174 to 177 °C. The molecule `CCCCCCCCS(=O)(=O)NCCCCOc1ccc(-n2ccnc2)cc1` came in with a melting point of 99 to 100 °C. In turn, `O=C(O)c1ccc(Nc2cccc3ccccc23)cc1` displayed a melting point of 227 to 229 °C. As for `OCCCC#Cc1cnc(-c2ccccc2)c(-c2ccccc2)n1`, the figure is 88 to 90 °C.

For `NCCCCNC(=O)COc1ccc2ccccc2c1`, the melting point is 58 °C. The figure for `CCCCCS(=O)(=O)NC(=O)/C=C/c1cc(OC(C)C)nn1Cc1ccc(Cl)cc1Cl` is 109 to 112 °C.

In turn, `O=C1Nc2cccnc2N(C(=O)NCCN2CCCCC2CNCC2CCCC2)c2ccccc21` (configuration not stated) gave a melting point of 157 to 158 °C. `C=CCNc1cc(C)nc2c(C)n[nH]c12` yielded a melting point of 196 to 198 °C. The figure for `CC(C)(C)n1cc(-c2ccc(S(=O)c3ccccc3)cc2)c2c(N)ncnc21` (configuration not stated) is 180 to 182 °C. The figure for `O=C(COc1ccc(Cl)cc1)c1ccc(Br)s1` is 128 to 130 °C; for `CCS(=O)(=O)NCCCCn1c(C)nc2c(N)nc3ccccc3c21` it is 211 to 212 °C.

Values taken from a melting point compilation (Tetko et al.; mined from patent text by program, amines drawn as free bases though some values may be those of a salt).
